Source: patent US6423718B1, “4,4-disubstituted-3,4-dihydro-2(1H)-quinazolinones useful as HIV reverse transcriptase inhibitors” (Bristol-Myers Squibb Pharma Company, priority 1997, dated 2002)
In brackets after ≈: the same amount, converted by molar mass.

System: HIV-1 (RF)
Assay: HIV RNA assay: microplate based compound evaluation in HIV-1 infected MT-2 cells (IC90)
Format: cell-based
Conditions: Human immunodeficiency virus 1, MT2, 72 h; HIV-1 (RF) infected MT-2 cells, 3 days of culture; virus dilutions selected to standardize the inoculum; read-out: IC90 value (concentration of compound required to reduce the HIV RNA level by 90%)
Protocol: Plasmid pDAB 72 containing both gag and pol sequences of BH10 (bp 113-1816) cloned into PTZ 19R was prepared according to Erickson-Viitanen et al. AIDS Research and Human Retroviruses 1989, 5, 577. The plasmid was linearized with Ban HI prior to the generation of in vitro RNA transcripts using the Riboprobe Gemini system II kit (Promega) with T7 RNA polymerase. Synthesized RNA was purified by treatment with RNase free DNAse (Promega), phenol-chloroform extraction, and ethanol precipitation. RNA transcripts were dissolved in water, and stored at −70° C. The concentration of RNA was determined from the A260.
Biotinylated capture probes were purified by HPLC after synthesis on an Applied Biosystems (Foster City, Calif.) DNA synthesizer by addition of biotin to the 5′ terminal end of the oligonucleotide, using the biotin-phosphoramidite reagent of Cocuzza, Tet. Lett. 1989, 30, 6287. […]
MT-2 and MT-4 cells were maintained in RPMI 1640 supplemented with 5% fetal calf serum (FCS) for MT-2 cells or 10% FCS for MT-4 cells, 2 mM L-glutamine and 50 μg/mL gentamycin, all from Gibco. […] Infectious titers of HIV-1 (RF) stocks were 1-3×10^7 PFU (plaque forming units)/mL as measured by plaque assay on MT-2 cells (see below). […]

Row | IC90 | Structure (SMILES)
1 | 0.2 µg/mL (≈ 0.947 µM) | Nc1ccn([C@H]2CC[C@@H](CO)O2)c(=O)n1 [ddC, 2′,3′-dideoxycytidine]

System: not given
Assay: not given
Conditions: not given

Row | melting point | Structure (SMILES)
2 | 208 °C | COc1ccc2c(c1)C(C#CC1CC1)(C(F)(F)F)NC(=O)N2 (racemic) [Example 6, (+/−)-4-Cyclopropylethynyl-6-methoxy-4-trifluoromethyl-3,4-dihydro-2(1H)-quinazolinone]
3 | 192 to 193 °C | CC(C)CCC1(C(F)(F)F)NC(=O)Nc2ccc(F)c(F)c21 (racemic) [Example 15, (+/−)-5,6-Difluoro-4-isopentyl-4-trifluoromethyl-3,4-dihydro-2(1H)-quinazolinone]

The remaining lines, values behind:

Row | Structure (SMILES) | melting point
4 | O=C1Nc2ccc(F)cc2C(C#CC2CC2)(C(F)(F)F)N1 (racemic) [Example 17, (+/−)-4-Cyclopropylethynyl-6-fluoro-4-trifluoromethyl-3,4-dihydro-2(1H)-quinazolinone] | 155 °C
5 | CC(C)CCC1(C(F)(F)F)NC(=O)Nc2ccc(F)cc21 (racemic) [Example 22, (+/−)-6-Fluoro-4-isopentyl-4-trifluoromethyl-3,4-dihydro-2(1H)-quinazolinone] | 179 °C
6 | CCCCC1(C(F)(F)F)NC(=O)Nc2ccc(F)cc21 (racemic) [Example 24, (+/−)-4-Butyl-6-fluoro-4-trifluoromethyl-3,4-dihydro-2(1H)-quinazolinone] | 198 °C
7 | O=C1Nc2ccc(F)cc2C(CCc2ccccc2)(C(F)(F)F)N1 (racemic) [Example 25, (+/−)-6-Fluoro-4-phenylethyl-4-trifluoromethyl-3,4-dihydro-2(1H)-quinazolinone] | 98 °C
